# According to ChEMBL document CHEMBL2074026, “Novel experimental parameters to quantify the modulation of absorptive and secretory transport of compounds by P-glycoprotein in cell culture models of intestinal epithelium” (Pharm Res, 2003):
# What was measured:
# Type in all cases: functional, cell-based
# [1] = molecular target: T1, ATP-dependent translocase ABCB1 (Homo sapiens, UniProt P08183); test: TP_TRANSPORTER: transepithelial transport of Ranitidine at a concentration of 100 uM in Caco-2 cells; details: caco-2, 100 µM
# T1 sequence (P08183 whole entry): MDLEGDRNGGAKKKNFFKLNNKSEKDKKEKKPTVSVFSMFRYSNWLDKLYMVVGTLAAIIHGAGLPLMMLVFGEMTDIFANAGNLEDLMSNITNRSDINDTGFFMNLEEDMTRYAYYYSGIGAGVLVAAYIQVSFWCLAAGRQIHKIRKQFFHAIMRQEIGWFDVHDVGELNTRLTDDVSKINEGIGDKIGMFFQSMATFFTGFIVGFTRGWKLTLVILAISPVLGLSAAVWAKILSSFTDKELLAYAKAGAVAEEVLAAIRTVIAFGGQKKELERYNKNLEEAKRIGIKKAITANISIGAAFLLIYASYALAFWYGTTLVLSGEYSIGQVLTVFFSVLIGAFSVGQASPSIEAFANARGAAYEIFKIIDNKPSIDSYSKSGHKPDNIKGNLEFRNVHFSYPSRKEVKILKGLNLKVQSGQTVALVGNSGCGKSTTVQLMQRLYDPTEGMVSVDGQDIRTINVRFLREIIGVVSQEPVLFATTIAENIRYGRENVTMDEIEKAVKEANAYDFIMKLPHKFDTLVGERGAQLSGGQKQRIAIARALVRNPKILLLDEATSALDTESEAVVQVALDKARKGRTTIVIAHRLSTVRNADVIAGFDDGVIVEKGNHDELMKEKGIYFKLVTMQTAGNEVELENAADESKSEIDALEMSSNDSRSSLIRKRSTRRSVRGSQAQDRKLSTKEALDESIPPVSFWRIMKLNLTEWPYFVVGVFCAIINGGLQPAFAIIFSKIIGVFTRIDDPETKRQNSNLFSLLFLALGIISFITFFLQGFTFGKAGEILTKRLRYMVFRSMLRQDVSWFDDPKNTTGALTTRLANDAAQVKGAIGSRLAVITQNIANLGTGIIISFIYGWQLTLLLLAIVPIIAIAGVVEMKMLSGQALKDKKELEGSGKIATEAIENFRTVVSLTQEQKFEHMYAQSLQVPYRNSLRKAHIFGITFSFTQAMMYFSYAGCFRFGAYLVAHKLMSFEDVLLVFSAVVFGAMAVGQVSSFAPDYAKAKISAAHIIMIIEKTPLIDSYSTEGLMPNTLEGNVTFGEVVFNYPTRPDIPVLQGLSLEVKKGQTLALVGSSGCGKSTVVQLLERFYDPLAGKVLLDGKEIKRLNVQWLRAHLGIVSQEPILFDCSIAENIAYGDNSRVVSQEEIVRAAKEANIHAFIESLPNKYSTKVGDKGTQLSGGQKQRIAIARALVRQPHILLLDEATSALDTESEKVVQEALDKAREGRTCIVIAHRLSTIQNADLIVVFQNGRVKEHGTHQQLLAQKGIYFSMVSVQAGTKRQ
# [2] = molecular target: T1, ATP-dependent translocase ABCB1; test: TP_TRANSPORTER: transepithelial transport of Ranitidine at a concentration of 100 uM in MDR1-expressing MDCK cells; details: dog
# [3] = molecular target: T1, ATP-dependent translocase ABCB1; test: TP_TRANSPORTER: transepithelial transport of Vinblastine at a concentration of 0.1 uM in MDR1-expressing MDCK cells; details: dog
# [4] = molecular target: T1, ATP-dependent translocase ABCB1; test: TP_TRANSPORTER: transepithelial transport in the presence of Vinblastine at 0.1 uM in Caco-2 cells
# [5] = molecular target: T1, ATP-dependent translocase ABCB1; test: TP_TRANSPORTER: transepithelial transport of Saquinavir at a concentration of 20 uM in MDR1-expressing MDCK cells; details: dog
# [6] = molecular target: T1, ATP-dependent translocase ABCB1; test: TP_TRANSPORTER: transepithelial transport of Saquinavir at a concentration of 20 uM in Caco-2 cells; details: caco-2, 20 µM
# [7] = molecular target: T1, ATP-dependent translocase ABCB1; test: TP_TRANSPORTER: transepithelial transport of Digoxin at a concentration of 10 uM in MDR1-expressing MDCK cells; details: dog
# [8] = molecular target: T1, ATP-dependent translocase ABCB1; test: TP_TRANSPORTER: transepithelial transport of Digoxin at a concentration of 10 uM in Caco-2 cells
# [9] = molecular target: T1, ATP-dependent translocase ABCB1; test: TP_TRANSPORTER: transepithelial transport of Taxol at a concentration of 10 uM in Caco-2 cells
# [10] = molecular target: T1, ATP-dependent translocase ABCB1; test: TP_TRANSPORTER: transepithelial transport of Taxol at a concentration of 10 uM in MDR1-expressing MDCK cells; details: dog
# [11] = molecular target: T1, ATP-dependent translocase ABCB1; test: TP_TRANSPORTER: transepithelial transport of Prednisolone at a concentration of 20 uM in MDR1-expressing MDCK cells; details: dog
# [12] = molecular target: T1, ATP-dependent translocase ABCB1; test: TP_TRANSPORTER: transepithelial transport of Doxorubicin at a concentration of 10 uM in MDR1-expressing MDCK cells; details: dog
# [13] = molecular target: T1, ATP-dependent translocase ABCB1; test: TP_TRANSPORTER: transepithelial transport of Doxorubicin at a concentration of 10 uM in Caco-2 cells
# [14] = molecular target: T1, ATP-dependent translocase ABCB1; test: TP_TRANSPORTER: transepithelial transport of Colchicine at a concentration of 25 uM in MDR1-expressing MDCK cells; details: dog
# [15] = molecular target: T1, ATP-dependent translocase ABCB1; test: TP_TRANSPORTER: transepithelial transport of Colchicine at a concentration of 25 uM in Caco-2 cells; details: caco-2, 25 µM
# [16] = molecular target: T1, ATP-dependent translocase ABCB1; test: TP_TRANSPORTER: transepithelial transport of Acebutolol at a concentration of 20 uM in MDR1-expressing MDCK cells; details: dog
# [17] = molecular target: T1, ATP-dependent translocase ABCB1; test: TP_TRANSPORTER: transepithelial transport of Acebutolol at a concentration of 20 uM in Caco-2 cells; details: caco-2, 20 µM
# [18] = molecular target: T1, ATP-dependent translocase ABCB1; test: TP_TRANSPORTER: transepithelial transport of Rhodamine at a concentration of 10 uM in Caco-2 cells
# [19] = molecular target: T1, ATP-dependent translocase ABCB1; test: TP_TRANSPORTER: transepithelial transport of Rhodamine at a concentration of 10 uM in MDR1-expressing MDCK cells; details: dog
# [20] = molecular target: T1, ATP-dependent translocase ABCB1; test: TP_TRANSPORTER: transepithelial transport of Methylprednisolone at a concentration of 20 uM in MDR1-expressing MDCK cells; details: dog
# [21] = molecular target: T1, ATP-dependent translocase ABCB1; test: TP_TRANSPORTER: transepithelial transport of Methylprednisolone at a concentration of 20 uM in Caco-2 cells; details: caco-2, 20 µM
smiles,measurement,setting,value
CNC(=C[N+](=O)[O-])NCCSCc1ccc(CN(C)C)o1 [RANITIDINE],Activity,[1],substrate [+]
same,Activity,[2],substrate [+]
CC[C@]1(O)C[C@@H]2CN(CCc3c([nH]c4ccccc34)[C@@](C(=O)OC)(c3cc4c(cc3OC)N(C)[C@H]3[C@@](O)(C(=O)OC)[C@H](OC(C)=O)[C@]5(CC)C=CCN6CC[C@]43[C@@H]65)C2)C1 [VINBLASTINE],Activity,[3],substrate [+]
same,Activity,[4],substrate [+]
CC(C)(C)NC(=O)[C@@H]1C[C@@H]2CCCC[C@@H]2CN1C[C@@H](O)[C@H](Cc1ccccc1)NC(=O)[C@H](CC(N)=O)NC(=O)c1ccc2ccccc2n1,Activity,[5],substrate [+]
same,Activity,[6],substrate [+]
C[C@H]1O[C@@H](O[C@H]2[C@@H](O)C[C@H](O[C@H]3[C@@H](O)C[C@H](O[C@H]4CC[C@@]5(C)[C@H](CC[C@@H]6[C@@H]5C[C@@H](O)[C@]5(C)[C@@H](C7=CC(=O)OC7)CC[C@]65O)C4)O[C@@H]3C)O[C@@H]2C)C[C@H](O)[C@@H]1O [DIGOXIN],Activity,[7],substrate [+]
same,Activity,[8],substrate [+]
CC(=O)O[C@H]1C(=O)[C@@]2(C)[C@H]([C@H](OC(=O)c3ccccc3)[C@]3(O)C[C@H](OC(=O)[C@H](O)[C@@H](NC(=O)c4ccccc4)c4ccccc4)C(C)=C1C3(C)C)[C@]1(OC(C)=O)CO[C@@H]1C[C@@H]2O [PACLITAXEL],Activity,[9],substrate [+]
same,Activity,[10],substrate [+]
C[C@]12C=CC(=O)C=C1CC[C@@H]1[C@@H]2[C@@H](O)C[C@@]2(C)[C@H]1CC[C@]2(O)C(=O)CO [PREDNISOLONE],Activity,[11],substrate [+]
COc1cccc2c1C(=O)c1c(O)c3c(c(O)c1C2=O)C[C@@](O)(C(=O)CO)C[C@@H]3O[C@H]1C[C@H](N)[C@H](O)[C@H](C)O1 [DOXORUBICIN],Activity,[12],substrate [+]
same,Activity,[13],substrate [+]
COc1cc2c(c(OC)c1OC)-c1ccc(OC)c(=O)cc1[C@@H](NC(C)=O)CC2 [COLCHICINE],Activity,[14],substrate [+]
same,Activity,[15],substrate [+]
CCCC(=O)Nc1ccc(OCC(O)CNC(C)C)c(C(C)=O)c1 (stereo unspecified) [ACEBUTOLOL],Activity,[16],substrate [+]
same,Activity,[17],substrate [+]
CCN(CC)c1ccc2c(-c3ccccc3C(=O)O)c3ccc(=[N+](CC)CC)cc-3oc2c1.[Cl-] [RHODAMINE],Activity,[18],substrate [+]
same,Activity,[19],substrate [+]
C[C@H]1C[C@@H]2[C@H]([C@@H](O)C[C@@]3(C)[C@H]2CC[C@]3(O)C(=O)CO)[C@@]2(C)C=CC(=O)C=C12 [METHYLPREDNISOLONE],Activity,[20],substrate [+]
same,Activity,[21],substrate [+]
